What was measured:
[1] = (§1) The drug is tested on Z-017 corresponding to mouse gut metagenome with ENA study accession number: PRJEB37062 and ENA sample accession number: ERS12561816 for biotransformation under anaerobic condition. The drug concentrations were measured over 9 timepoints collected between 0 and 24 hours of incubation by liquid-chromatography-coupled mass spectrometry (LC–MS); details: 2 µM
[2] = as §1, with “Z-025” for “Z-017”, “rabbit” for “mouse”, “ERS12561824” for “ERS12561816”; details: 2 µM
[3] = as §1, with “WLS-010” for “Z-017”, “human” for “mouse”, “ERS12561743” for “ERS12561816”; details: 2 µM
[4] = as §1, with “WLS-240” for “Z-017”, “human” for “mouse”, “ERS12561773” for “ERS12561816”; details: 2 µM
[5] = human gut metagenome, 24 h, 2 µM
[6] = human gut metagenome, 24 h, 2 µM; remark: listed apart in the source
[7] = as §1, with “WLS-007” for “Z-017”, “human” for “mouse”, “ERS12561742” for “ERS12561816”; details: 2 µM
[8] = as §1, with “WLS-039” for “Z-017”, “human” for “mouse”, “ERS12561746” for “ERS12561816”; details: 2 µM
[9] = human gut metagenome, 24 h, 2 µM; remark: listed apart in the source
[10] = as §1, with “WLS-082” for “Z-017”, “human” for “mouse”, “ERS12561751” for “ERS12561816”; details: 2 µM
[11] = as §1, with “WLS-350” for “Z-017”, “human” for “mouse”, “ERS12561789” for “ERS12561816”; details: 2 µM
[12] = human gut metagenome, 24 h, 2 µM; remark: listed apart in the source
[13] = human gut metagenome, 24 h, 2 µM; remark: listed apart in the source
[14] = human gut metagenome, 24 h, 2 µM; remark: listed apart in the source
[15] = as §1, with “Z-010” for “Z-017”, “to” for “to mouse gut”, “ERS12561810” for “ERS12561816”; details: 2 µM
[16] = human gut metagenome, 24 h, 2 µM; remark: listed apart in the source
[17] = human gut metagenome, 24 h, 2 µM; remark: listed apart in the source
[18] = human gut metagenome, 24 h, 2 µM; remark: listed apart in the source
[19] = human gut metagenome, 24 h, 2 µM; remark: listed apart in the source
[20] = human gut metagenome, 24 h, 2 µM; remark: listed apart in the source
Also: call rule not given here.

Compound | Bacterial Biotransformation [1] | Bacterial Biotransformation [2] | Bacterial Biotransformation [3] | Bacterial Biotransformation [4] | Bacterial Biotransformation [5] | Bacterial Biotransformation [6] | Bacterial Biotransformation [7] | Bacterial Biotransformation [8] | Bacterial Biotransformation [9] | Bacterial Biotransformation [10] | Bacterial Biotransformation [11] | Bacterial Biotransformation [12] | Bacterial Biotransformation [13] | Bacterial Biotransformation [14] | Bacterial Biotransformation [15] | Bacterial Biotransformation [16] | Bacterial Biotransformation [17] | Bacterial Biotransformation [18] | Bacterial Biotransformation [19] | Bacterial Biotransformation [20]
CN1CCC(=C2c3ccccc3CCc3cccnc32)CC1.O=C(O)/C=C\C(=O)O.O=C(O)/C=C\C(=O)O [AZATADINE MALEATE] | Compound NOT metabolized | Compound NOT metabolized | Compound NOT metabolized | Compound NOT metabolized | Compound NOT metabolized | Compound NOT metabolized | Compound NOT metabolized | Compound NOT metabolized | Compound metabolized | Compound NOT metabolized | Compound NOT metabolized | Compound NOT metabolized | Compound NOT metabolized | Compound NOT metabolized | Compound NOT metabolized | Compound NOT metabolized | Compound NOT metabolized | Compound metabolized | Compound NOT metabolized | Compound NOT metabolized
CC(=O)OCC(=O)[C@@]1(O)[C@@H](C)C[C@H]2[C@@H]3CCC4=CC(=O)C=C[C@]4(C)[C@@]3(F)[C@@H](O)C[C@@]21C [BETAMETHASONE ACETATE] | Compound metabolized | Compound metabolized | Compound metabolized | Compound metabolized | Compound NOT metabolized | Compound metabolized | Compound metabolized | Compound metabolized | Compound metabolized | Compound metabolized | Compound metabolized | Compound metabolized | Compound metabolized | Compound metabolized | Compound metabolized | Compound metabolized | Compound metabolized | Compound metabolized | Compound NOT metabolized | Compound metabolized
CC(C)NCC(O)COc1ccc(CCOCC2CC2)cc1 (stereo not given) [BETAXOLOL] | Compound NOT metabolized | Compound metabolized | Compound NOT metabolized | Compound metabolized | Compound NOT metabolized | Compound metabolized | Compound NOT metabolized | Compound NOT metabolized | Compound metabolized | Compound NOT metabolized | Compound NOT metabolized | Compound NOT metabolized | Compound NOT metabolized | Compound NOT metabolized | Compound NOT metabolized | Compound metabolized | Compound NOT metabolized | Compound metabolized | Compound NOT metabolized | Compound NOT metabolized
CN/C(=N/CCSCc1nc[nH]c1C)NC#N [CIMETIDINE] | Compound NOT metabolized | Compound NOT metabolized | Compound metabolized | Compound metabolized | Compound NOT metabolized | Compound metabolized | Compound NOT metabolized | Compound NOT metabolized | Compound metabolized | Compound metabolized | Compound NOT metabolized | Compound metabolized | Compound NOT metabolized | Compound metabolized | Compound metabolized | Compound metabolized | Compound NOT metabolized | Compound metabolized | Compound NOT metabolized | Compound metabolized
Br.CN(C)CCCC1(c2ccc(F)cc2)OCc2cc(C#N)ccc21 (stereo not given) [CITALOPRAM HYDROBROMIDE] | Compound NOT metabolized | Compound NOT metabolized | Compound NOT metabolized | Compound metabolized | Compound NOT metabolized | Compound metabolized | Compound NOT metabolized | Compound NOT metabolized | Compound metabolized | Compound NOT metabolized | Compound NOT metabolized | Compound NOT metabolized | Compound metabolized | Compound metabolized | Compound metabolized | Compound metabolized | Compound NOT metabolized | Compound metabolized | Compound NOT metabolized | Compound metabolized

The next lines start with the values.

Bacterial Biotransformation [1] | Bacterial Biotransformation [2] | Bacterial Biotransformation [3] | Bacterial Biotransformation [4] | Bacterial Biotransformation [5] | Bacterial Biotransformation [6] | Bacterial Biotransformation [7] | Bacterial Biotransformation [8] | Bacterial Biotransformation [9] | Bacterial Biotransformation [10] | Bacterial Biotransformation [11] | Bacterial Biotransformation [12] | Bacterial Biotransformation [13] | Bacterial Biotransformation [14] | Bacterial Biotransformation [15] | Bacterial Biotransformation [16] | Bacterial Biotransformation [17] | Bacterial Biotransformation [18] | Bacterial Biotransformation [19] | Bacterial Biotransformation [20] | Compound
Compound NOT metabolized | Compound NOT metabolized | Compound metabolized | Compound metabolized | Compound NOT metabolized | Compound metabolized | Compound metabolized | Compound metabolized | Compound metabolized | Compound metabolized | Compound metabolized | Compound metabolized | Compound metabolized | Compound metabolized | Compound metabolized | Compound metabolized | Compound metabolized | Compound metabolized | Compound NOT metabolized | Compound metabolized | CC(C)(Oc1ccc(CCNC(=O)c2ccc(Cl)cc2)cc1)C(=O)O [BEZAFIBRATE]
Compound NOT metabolized | Compound NOT metabolized | Compound metabolized | Compound metabolized | Compound metabolized | Compound metabolized | Compound NOT metabolized | Compound metabolized | Compound metabolized | Compound metabolized | Compound NOT metabolized | Compound NOT metabolized | Compound metabolized | Compound metabolized | Compound metabolized | Compound metabolized | Compound metabolized | Compound metabolized | Compound NOT metabolized | Compound NOT metabolized | CCN(CC)CCOCCOC(=O)C1(c2ccccc2)CCCC1.O=C(O)CC(O)(CC(=O)O)C(=O)O [CARBETAPENTANE CITRATE]
Compound NOT metabolized | Compound NOT metabolized | Compound metabolized | Compound metabolized | Compound metabolized | Compound metabolized | Compound metabolized | Compound metabolized | Compound metabolized | Compound metabolized | Compound metabolized | Compound metabolized | Compound metabolized | Compound metabolized | Compound metabolized | Compound metabolized | Compound metabolized | Compound metabolized | Compound metabolized | Compound metabolized | O=C(O)COCCN1CCN(C(c2ccccc2)c2ccc(Cl)cc2)CC1 (stereo not given) [CETIRIZINE]

From ChEMBL document CHEMBL5724914, “Linking interpersonal differences in gut microbiota composition and drug biotransformation activity” (2024)
